Measured values reported in PMC6429214, “Design, Synthesis and Biological Evaluation of Isoxazole-Based CK1 Inhibitors Modified with Chiral Pyrrolidine Scaffolds” (Molecules, 2019).

Assays:
Assay in all cases: 33PanQinase panel
Format in all cases: biochemical
[1] = target: T1, MEKK2 (Homo sapiens, UniProt Q9Y2U5); details: MEKK2, 1 µM; read-out: Residual Activity (%)
T1 construct: purchased ProQinase
Procedure, shortened: (§1)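 The compound is tested at 1 µM against a panel of 320 wild-type protein kinases. A radiometric, activity-based 33P readout gives kinase activity, reported as residual percentage of the DMSO control; final DMSO is 1%.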

[2] = target: T2, FGF-R3 (Homo sapiens, UniProt P22607); details: FGF-R3, 1 µM; read-out: Residual Activity (%)
T2 construct: purchased ProQinase
Procedure, shortened: as §1

[3] = target: T3, CK1-gamma1 (Homo sapiens, UniProt Q9HCP0); details: CK1-gamma1, 1 µM; read-out: Residual Activity (%)
T3 construct: purchased ProQinase
Procedure, shortened: as §1

[4] = target: T4, FRK (Homo sapiens, UniProt P42685); details: read-out: Residual Activity (%)
T4 construct: purchased ProQinase
Procedure, shortened: as §1

[5] = target: T5, HCK (Homo sapiens, UniProt P08631); details: read-out: Residual Activity (%)
T5 construct: purchased ProQinase
Procedure, shortened: as §1

[6] = target: T6, PKC-epsilon (Homo sapiens, UniProt Q02156); details: read-out: Residual Activity (%)
T6 construct: purchased ProQinase
Procedure, shortened: as §1

[7] = target: T7, DDR2 (Homo sapiens, UniProt Q16832); details: DDR2, 1 µM; read-out: Residual Activity (%)
T7 construct: purchased ProQinase
T7 sequence (Q16832 22-855): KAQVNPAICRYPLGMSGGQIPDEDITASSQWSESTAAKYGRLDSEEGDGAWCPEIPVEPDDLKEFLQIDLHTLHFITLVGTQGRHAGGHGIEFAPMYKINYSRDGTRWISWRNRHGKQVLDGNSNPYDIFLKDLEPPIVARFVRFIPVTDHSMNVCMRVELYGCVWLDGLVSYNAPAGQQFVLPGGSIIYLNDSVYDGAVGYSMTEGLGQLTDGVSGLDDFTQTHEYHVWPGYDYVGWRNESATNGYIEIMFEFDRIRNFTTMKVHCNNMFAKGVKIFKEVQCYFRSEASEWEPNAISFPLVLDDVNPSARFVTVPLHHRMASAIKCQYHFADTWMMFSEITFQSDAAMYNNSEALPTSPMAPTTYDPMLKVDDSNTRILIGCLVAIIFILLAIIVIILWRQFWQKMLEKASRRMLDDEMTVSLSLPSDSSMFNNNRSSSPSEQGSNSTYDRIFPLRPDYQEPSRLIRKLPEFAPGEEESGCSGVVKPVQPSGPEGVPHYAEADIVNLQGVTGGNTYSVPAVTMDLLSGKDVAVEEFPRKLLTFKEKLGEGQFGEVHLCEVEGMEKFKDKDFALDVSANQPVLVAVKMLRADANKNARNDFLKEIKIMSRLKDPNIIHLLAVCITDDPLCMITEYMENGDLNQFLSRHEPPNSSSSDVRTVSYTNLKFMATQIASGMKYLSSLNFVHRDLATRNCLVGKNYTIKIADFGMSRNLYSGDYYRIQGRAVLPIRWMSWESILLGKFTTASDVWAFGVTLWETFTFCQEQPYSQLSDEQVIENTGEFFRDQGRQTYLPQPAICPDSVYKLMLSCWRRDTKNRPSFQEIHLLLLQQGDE
Procedure, shortened: as §1

[8] = target: T8, PRKX (Homo sapiens, UniProt P51817); details: read-out: Residual Activity (%)
T8 construct: purchased ProQinase
Procedure, shortened: as §1

[9] = target: T9, PKC-zeta (Homo sapiens, UniProt Q05513); details: read-out: Residual Activity (%)
T9 construct: purchased ProQinase
T9 sequence (Q05513 whole entry): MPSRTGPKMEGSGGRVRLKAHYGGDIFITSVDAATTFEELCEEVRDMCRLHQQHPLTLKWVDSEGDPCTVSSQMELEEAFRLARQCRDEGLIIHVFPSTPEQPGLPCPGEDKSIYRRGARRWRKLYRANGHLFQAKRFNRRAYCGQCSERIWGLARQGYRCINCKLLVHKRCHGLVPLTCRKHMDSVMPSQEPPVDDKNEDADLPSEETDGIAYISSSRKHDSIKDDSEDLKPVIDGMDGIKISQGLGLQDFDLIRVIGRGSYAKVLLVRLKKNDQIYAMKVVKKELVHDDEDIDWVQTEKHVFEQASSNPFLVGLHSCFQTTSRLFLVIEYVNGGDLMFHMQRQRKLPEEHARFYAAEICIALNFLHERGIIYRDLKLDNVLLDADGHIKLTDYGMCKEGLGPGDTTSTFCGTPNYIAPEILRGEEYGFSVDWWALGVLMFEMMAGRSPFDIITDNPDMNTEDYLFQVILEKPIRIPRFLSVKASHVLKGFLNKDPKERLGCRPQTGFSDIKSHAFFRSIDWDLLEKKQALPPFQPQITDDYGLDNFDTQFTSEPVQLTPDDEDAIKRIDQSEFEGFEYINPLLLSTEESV
Procedure, shortened: as §1

[10] = target: T10, NEK7 (Homo sapiens, UniProt Q8TDX7); details: NEK7, 1 µM; read-out: Residual Activity (%)
T10 construct: purchased ProQinase
T10 sequence (Q8TDX7 whole entry): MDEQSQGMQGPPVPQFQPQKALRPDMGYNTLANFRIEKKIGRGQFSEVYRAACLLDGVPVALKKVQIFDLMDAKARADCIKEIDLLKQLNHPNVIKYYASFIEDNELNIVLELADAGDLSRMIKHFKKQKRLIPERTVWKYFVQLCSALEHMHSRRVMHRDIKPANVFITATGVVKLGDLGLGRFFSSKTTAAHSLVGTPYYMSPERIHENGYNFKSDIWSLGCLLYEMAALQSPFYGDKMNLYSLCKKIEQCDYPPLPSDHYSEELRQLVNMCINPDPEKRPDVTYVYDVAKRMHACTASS
Procedure, shortened: as §1

[11] = target: T11, FES (Homo sapiens, UniProt P07332); details: read-out: Residual Activity (%)
T11 construct: purchased ProQinase
T11 sequence (P07332 whole entry): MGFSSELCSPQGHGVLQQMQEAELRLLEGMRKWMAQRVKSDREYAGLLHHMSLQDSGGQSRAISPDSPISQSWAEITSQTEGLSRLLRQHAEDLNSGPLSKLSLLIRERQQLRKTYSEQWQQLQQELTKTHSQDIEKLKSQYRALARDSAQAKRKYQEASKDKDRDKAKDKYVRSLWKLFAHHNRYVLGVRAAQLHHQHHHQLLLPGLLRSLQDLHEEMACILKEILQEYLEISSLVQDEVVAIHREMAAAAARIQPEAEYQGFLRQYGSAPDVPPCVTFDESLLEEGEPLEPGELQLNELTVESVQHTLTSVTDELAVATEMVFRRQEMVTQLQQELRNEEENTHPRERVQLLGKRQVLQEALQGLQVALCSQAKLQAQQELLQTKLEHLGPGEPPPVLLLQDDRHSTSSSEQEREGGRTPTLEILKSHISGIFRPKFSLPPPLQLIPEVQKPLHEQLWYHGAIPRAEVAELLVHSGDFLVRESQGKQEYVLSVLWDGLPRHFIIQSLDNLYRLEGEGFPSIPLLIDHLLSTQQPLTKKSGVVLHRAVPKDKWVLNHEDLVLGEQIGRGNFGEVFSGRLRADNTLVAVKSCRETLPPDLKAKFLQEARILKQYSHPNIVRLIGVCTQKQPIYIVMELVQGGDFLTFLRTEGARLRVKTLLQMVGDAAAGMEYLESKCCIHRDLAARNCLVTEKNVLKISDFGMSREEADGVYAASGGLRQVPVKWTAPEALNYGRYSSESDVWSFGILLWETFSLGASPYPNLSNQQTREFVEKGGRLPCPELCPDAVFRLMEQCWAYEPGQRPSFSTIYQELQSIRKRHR
Procedure, shortened: as §1

[12] = target: T12, JAK3 (Homo sapiens, UniProt P52333); details: JAK3, 1 µM; read-out: Residual Activity (%)
T12 construct: purchased ProQinase
Procedure, shortened: as §1

[13] = target: T13, MAP3K7/MAP3K7IP1 (Homo sapiens, UniProt O43318); details: MAP3K7/MAP3K7IP1, 1 µM; read-out: Residual Activity (%)
T13 construct: purchased ProQinase
Procedure, shortened: as §1

[14] = target: T14, NEK11 (Homo sapiens, UniProt Q8NG66); details: NEK11, 1 µM; read-out: Residual Activity (%)
T14 construct: purchased ProQinase
T14 sequence (Q8NG66 whole entry): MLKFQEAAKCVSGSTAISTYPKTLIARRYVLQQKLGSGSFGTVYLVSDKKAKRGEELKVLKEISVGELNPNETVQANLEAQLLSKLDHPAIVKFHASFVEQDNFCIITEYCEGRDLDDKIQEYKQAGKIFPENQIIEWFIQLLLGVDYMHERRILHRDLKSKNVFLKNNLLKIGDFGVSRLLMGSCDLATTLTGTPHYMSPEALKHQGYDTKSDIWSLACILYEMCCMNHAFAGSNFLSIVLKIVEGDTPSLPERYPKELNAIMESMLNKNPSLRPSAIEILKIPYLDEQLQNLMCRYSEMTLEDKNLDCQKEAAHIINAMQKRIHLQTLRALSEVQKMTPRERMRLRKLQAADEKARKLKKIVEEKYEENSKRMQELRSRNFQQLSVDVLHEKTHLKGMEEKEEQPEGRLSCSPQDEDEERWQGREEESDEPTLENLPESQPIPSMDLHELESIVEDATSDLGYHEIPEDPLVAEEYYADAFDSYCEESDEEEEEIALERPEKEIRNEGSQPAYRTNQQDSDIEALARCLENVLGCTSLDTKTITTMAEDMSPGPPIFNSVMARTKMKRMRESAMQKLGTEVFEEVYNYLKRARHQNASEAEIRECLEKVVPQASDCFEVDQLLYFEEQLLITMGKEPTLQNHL
Procedure, shortened: as §1

[15] = target: T15, PAK2 (Homo sapiens, UniProt Q13177); details: PAK2, 1 µM; read-out: Residual Activity (%)
T15 construct: purchased ProQinase
Procedure, shortened: as §1

[16] = target: T16, PKC-mu (Homo sapiens, UniProt Q15139); details: read-out: Residual Activity (%)
T16 construct: purchased ProQinase
Procedure, shortened: as §1

[17] = target: T17, EPHA5 (Homo sapiens, UniProt P54756); details: EPHA5, 1 µM; read-out: Residual Activity (%)
T17 construct: purchased ProQinase
T17 sequence (P54756 25-1037): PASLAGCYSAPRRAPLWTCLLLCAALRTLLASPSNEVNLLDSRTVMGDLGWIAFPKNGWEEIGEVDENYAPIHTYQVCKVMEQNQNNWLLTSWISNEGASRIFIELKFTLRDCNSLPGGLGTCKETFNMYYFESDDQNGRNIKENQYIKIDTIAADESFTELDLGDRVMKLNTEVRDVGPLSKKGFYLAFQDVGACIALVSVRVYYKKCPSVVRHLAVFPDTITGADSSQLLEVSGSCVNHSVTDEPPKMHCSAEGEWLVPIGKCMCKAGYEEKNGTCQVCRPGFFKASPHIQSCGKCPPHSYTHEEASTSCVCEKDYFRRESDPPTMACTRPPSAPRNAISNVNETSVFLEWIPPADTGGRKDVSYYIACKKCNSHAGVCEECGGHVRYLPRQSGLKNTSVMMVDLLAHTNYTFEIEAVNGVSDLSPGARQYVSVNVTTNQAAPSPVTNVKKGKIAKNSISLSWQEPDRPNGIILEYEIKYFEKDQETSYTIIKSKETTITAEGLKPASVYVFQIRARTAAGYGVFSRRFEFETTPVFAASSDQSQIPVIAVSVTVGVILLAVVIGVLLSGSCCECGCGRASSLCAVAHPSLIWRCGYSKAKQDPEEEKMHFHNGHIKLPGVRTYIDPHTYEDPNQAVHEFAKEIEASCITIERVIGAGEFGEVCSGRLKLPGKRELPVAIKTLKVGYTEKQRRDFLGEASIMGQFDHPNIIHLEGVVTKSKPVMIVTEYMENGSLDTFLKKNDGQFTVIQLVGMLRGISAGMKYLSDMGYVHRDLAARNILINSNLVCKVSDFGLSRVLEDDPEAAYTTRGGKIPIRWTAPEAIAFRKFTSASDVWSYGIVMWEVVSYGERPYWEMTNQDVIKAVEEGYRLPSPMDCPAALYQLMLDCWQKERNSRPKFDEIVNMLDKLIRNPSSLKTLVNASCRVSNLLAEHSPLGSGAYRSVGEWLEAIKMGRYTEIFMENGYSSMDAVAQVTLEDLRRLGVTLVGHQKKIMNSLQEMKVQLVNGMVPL
Procedure, shortened: as §1

[18] = target: T18, JAK1 aa583-1154 wt (Homo sapiens, UniProt P23458); details: read-out: Residual Activity (%)
T18 construct: purchased ProQinase
Procedure, shortened: as §1

[19] = target: T19, FYN (Homo sapiens, UniProt P06241); details: read-out: Residual Activity (%)
T19 construct: purchased ProQinase
Procedure, shortened: as §1

[20] = target: T20, CLK2 (Homo sapiens, UniProt P49760); details: CLK2, 1 µM; read-out: Residual Activity (%)
T20 construct: purchased ProQinase
T20 sequence (P49760 whole entry): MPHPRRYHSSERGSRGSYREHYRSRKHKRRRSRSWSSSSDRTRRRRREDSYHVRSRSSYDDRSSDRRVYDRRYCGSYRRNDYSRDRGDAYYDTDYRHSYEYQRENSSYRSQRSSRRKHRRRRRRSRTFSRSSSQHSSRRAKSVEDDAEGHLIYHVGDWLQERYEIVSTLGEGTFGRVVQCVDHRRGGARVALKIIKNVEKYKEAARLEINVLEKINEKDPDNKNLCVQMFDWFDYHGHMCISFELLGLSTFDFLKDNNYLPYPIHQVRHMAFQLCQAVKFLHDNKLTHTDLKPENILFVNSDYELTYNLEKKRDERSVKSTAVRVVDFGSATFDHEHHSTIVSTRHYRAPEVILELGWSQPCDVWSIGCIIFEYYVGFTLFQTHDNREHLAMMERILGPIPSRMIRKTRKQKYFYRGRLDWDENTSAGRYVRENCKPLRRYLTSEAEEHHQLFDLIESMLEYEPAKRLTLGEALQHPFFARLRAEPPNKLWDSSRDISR
Procedure, shortened: as §1

[21] = target: T21, ZAK (Homo sapiens, UniProt Q9NYL2); details: read-out: Residual Activity (%)
T21 construct: purchased ProQinase
Procedure, shortened: as §1

[22] = target: T22, MST2 (Homo sapiens, UniProt Q13188); details: MST2, 1 µM; read-out: Residual Activity (%)
T22 construct: purchased ProQinase
Procedure, shortened: as §1

[23] = target: T23, LCK (Homo sapiens, UniProt P06239); details: read-out: Residual Activity (%)
T23 construct: purchased ProQinase
Procedure, shortened: as §1

[24] = target: T24, HIPK3 (Homo sapiens, UniProt Q9H422); details: HIPK3, 1 µM; read-out: Residual Activity (%)
T24 construct: purchased ProQinase
Procedure, shortened: as §1

[25] = target: T25, DCAMKL2 (Homo sapiens, UniProt Q8N568); details: DCAMKL2, 1 µM; read-out: Residual Activity (%)
T25 construct: purchased ProQinase
Procedure, shortened: as §1

[26] = target: T26, PKA (Homo sapiens, UniProt P17612); details: read-out: Residual Activity (%)
T26 construct: purchased ProQinase
Procedure, shortened: as §1

[27] = target: T27, SRPK1 (Homo sapiens, UniProt Q96SB4); details: SRPK1, 1 µM; read-out: Residual Activity (%)
T27 construct: purchased ProQinase
Procedure, shortened: as §1

[28] = target: T28, MAP4K4 (Homo sapiens, UniProt O95819); details: MAP4K4, 1 µM; read-out: Residual Activity (%)
T28 construct: purchased ProQinase
Procedure, shortened: as §1

[29] = target: T29, MST3 (Homo sapiens, UniProt Q9Y6E0); details: MST3, 1 µM; read-out: Residual Activity (%)
T29 construct: purchased ProQinase
Procedure, shortened: as §1

[30] = target: T30, SGK2 (Homo sapiens, UniProt Q9HBY8); details: SGK2, 1 µM; read-out: Residual Activity (%)
T30 construct: purchased ProQinase
Procedure, shortened: as §1

Structure (SMILES): COc1ccc(-c2cc(C(=O)Nc3cc(-c4c(-c5ccc(F)cc5)noc4C(C)C)ccn3)n(CC3NCC(O)C3O)c2)cc1 (stereo not drawn) [29d]
- remaining activity at 1 µM [1]: 111%
- remaining activity at 1 µM [2]: 118%
- remaining activity at 1 µM [3]: 88%
- remaining activity at 1 µM [4]: 94%
- remaining activity at 1 µM [5]: 110%
- remaining activity at 1 µM [6]: 84%
- remaining activity at 1 µM [7]: 95%
- remaining activity at 1 µM [8]: 92%
- remaining activity at 1 µM [9]: 123%
- remaining activity at 1 µM [10]: 116%
- remaining activity at 1 µM [11]: 120%
- remaining activity at 1 µM [12]: 81%
- remaining activity at 1 µM [13]: 95%
- remaining activity at 1 µM [14]: 100%
- remaining activity at 1 µM [15]: 107%
- remaining activity at 1 µM [16]: 94%
- remaining activity at 1 µM [17]: 103%
- remaining activity at 1 µM [18]: 104%
- remaining activity at 1 µM [19]: 156%
- remaining activity at 1 µM [20]: 116%
- remaining activity at 1 µM [21]: 116%
- remaining activity at 1 µM [22]: 85%
- remaining activity at 1 µM [23]: 96%
- remaining activity at 1 µM [24]: 109%
- remaining activity at 1 µM [25]: 86%
- remaining activity at 1 µM [26]: 96%
- remaining activity at 1 µM [27]: 105%
- remaining activity at 1 µM [28]: 83%
- remaining activity at 1 µM [29]: 117%
- remaining activity at 1 µM [30]: 101%
